Reference: patent publication US8669257B2, “Phenazine derivatives and uses thereof as potassium channel modulators” (The Johns Hopkins University, priority 2007, dated 2014)

Tested on: calcium influx in Jurkat T-cells
Experiment: Calcium imaging assay: store-depletion induced calcium influx in Jurkat T-cells
Type: cell-based, human
Details: thapsigargin then 2 mM Ca2+; clofazimine preincubated 5 min
Experimental: JurkaT-cells were attached to L-lysine-coated glass dishes (MatTek). Cells were loaded with fura-2-AM (Invitrogen_F-1201) for 45 min before they were washed sequentially with growth medium and Ca^2+-free HBSS. Fluorescence excitation wavelengths were set at 350 and 380 nm, respectively, on a Zeiss Axiovert 200M microscope while emission wavelength was set at 510 nm. Changes in intracellular calcium concentrations were determined by fluorescence intensity ratio ([…]/F380).

| SMILES | effect on calcium entry |
| --- | --- |
| Clc1ccc(COC(Cn2ccnc2)c2ccc(Cl)cc2Cl)cc1 (centres unmarked) [econazole] | abrogated calcium entry |
| [Gd] [gadolinium] | abrogated calcium entry |
